# Assay: Inhibitory activity against Mannosidase in rat liver
row,SMILES,IC50 [µM]
1,O[C@@H]1[C@H]2[C@@H](O)CCCN2C[C@H]1O,~50
2,O[C@H]1[C@H]2[C@@H](O)CCCN2C[C@H]1O,~50
3,O[C@H]1[C@@H]2[C@H](O)CCCN2C[C@H]1O,~10
4,OC1CN2CCCCC2C1O (centres undefined),7500
